The source of these data is patent publication US5773522A, “Polymer-bound camptothecin derivatives” (priority 1993, dated 1998).

In one series the test system is HT29/Colon Carcinoma. The experiment in a line: Antitumor activity in athymic mice transplanted s.c. with HT29 Colon Carcinoma. Type of series: in vivo, athymic Swiss/nu/ mice. The conditions noted are these: for % tumor inhib. / TOX (number of toxic deaths/total number of mice) / cured mice (tumor free mice 90 days after tumor implant): 7.5 mg/kg (CPT equivalent), iv q4dx6. How it is done:
(§1) Camptothecin (CPT) was dissolved in sterile water with 10% tween.
(§2) Treatment was administered i.v. in a volume of 10 ml/kg of body weight and control mice were treated with sterile water.
HT29 Colon Carcinoma was transplanted s.c. in athymic Swiss/nu/ mice using 15-20 mg of tumor brei.
(§3) All animals were from Charles River Calco, Como, Italy.
(§4) Ten mice/group for conventional and eight for athymic mice were used.
(§5) The mouse colony was routinely tested for the absence of antibodies to a panel of pathogens including Mouse Hepatitis, Sendai Virus and Mycoplasma Pulmonis.
(§6) Tumor growth was assesed by caliper measurement and the tumor weight estimated according to Geran et al. (see: Cancer Chem.Rep., Part 3, 3 (2) ed. 3, pp 1-103, 1972). The antitumor activity is expressed as percentage of inhibition of tumor growth (%T/I) using the following formula: [formula] The median increase in survival time (T/C%) was calculated using the following formula: [formula]
Cured mice are mice without tumor at the end of the experiment.
(§7) Toxicity was evaluated on the basis of the body weight reduction and gross autopsy findings, mainly in terms of reduction of spleen and liver size.

The nature of series [1]: Stability of polymeric conjugates in murine or human plasma (camptothecin release). Type of series: in vitro ADME. Here is the method: Each sample was extracted by adding 100 μl of 0.25M phosphoric acid, 500 μl CH3 CN and 700 μl ethyl acetate and vigorously shaking for 20 minutes at 4° C. After that time, the sample was spun at 15000×g for 10 minutes and the supernatant was separated. To the residue was added 300 μl of CH3 CN and 500 μl was spun at 15000×g for 10 minutes. The supernatant was separated. The organic phases were pooled and evaporated using a high vacuum centrifuge. The sample was recovered by adding 500 μl of MeOH/water pH2 (70/30 by volume) and injected into HPLC apparatus for determining the total drug percentage content.

The subject of series [2] is early M5076 murine reticulosarcoma. The experiment in a line: Antitumor activity against early M5076 murine reticulosarcoma. Type of series: in vivo, C57Bl/6 mice. Particulars: 7.5 mg/kg (CPT equivalent); for % tumor inhib.: estimated one week after the last treatment. How it is done:
Camptothecin (CPT) was dissolved in sterile water with 10% tween. […]
(§8) M5076 muine reticulosarcoma was maintained by serial i.m. passages and transplanted s.c. (5×10^5 cells/mouse) in compatible C57Bl/6 mice.
as §3, §4
(§9) The conventional mice weighed 20 to 22 g and were kept under standard laboratory conditions.
as §5, §6, §7

A further series is described as follows: Water solubility. The format is physicochemical. The conditions noted are these: dissolved in saline.
The test system of series [3] is advanced M5076 murine reticulosarcoma. The experiment in a line: Antitumor activity against advanced M5076 murine reticulosarcoma. The format is in vivo, C57Bl/6 mice. The conditions noted are these: iv on day 16,20,24,28,31,35; for % tumor inhibition: estimated at day 34. Here is the method: as §1, §2, §8, §3, §4, §9, §5, §6, §7
In a further series the test system is healthy C57Bl/F mice. As to the kind of experiment: Toxicity (LD10, LD50) in healthy mice. The format is in vivo. The conditions noted are these: i.v., healthy C57B1/F mice.
Series [4] is described as follows: Toxicity (LD10, LD50) in healthy mice. Type of series: in vivo, C57Bl/F mice. Particulars: mouse, in vivo, iv, healthy C57B1/F mice; read-out: LD50 (dose inducing 50% of death mice).
For series [5] the following is noted: background statement; cited from earlier work.

For the molecule “Copolymer of N-(2-hydroxypropyl)methacrylamide, 20-O-[N-methacryloylglycyl -L-phenylalanyl-L-leucylglycyl] camptothecin and N-(2-hydroxypropyl) methacryloylglycinamide [Compound A2]”, in the series on HT29/Colon Carcinoma, the “% tumor inhib.” value is 96%, the “TOX (number of toxic deaths/total number of mice)” value was 0/18 and the “cured mice (tumor free mice 90 days after tumor implant)” value is 3/18. In addition, the “antitumor activity compared with camptothecin (in words)” value in the series on HT29/Colon Carcinoma (all experiments (HT29, early and advanced M5076)) was “striking higher activity”. In addition, the “camptothecin released after plasma incubation” value (from here on “camptothecin released”) in series [1] (after 60 hours) is recorded as 100%. In series [2] (iv 1,6,9), the “T/C % (median increase in survival time)” value came to 171%, the “TOX (number of toxic deaths/total number of mice)” value was 0/10 and the “% tumor inhib.” value is 100%. Further, the “water solubility (in words)” value in the series “Water solubility” is “highly water soluble”. Besides, in series [3] (10.0 mg/kg (CPT equivalent)), the “T/C % (median increase in survival time)” value is given as 174%, the “TOX (number of toxic deaths/total number of mice)” value is listed as 0/10 and the “% tumor inhibition” value is reported as 80%. Besides, in series [3] (15.0 mg/kg (CPT equivalent)), the “T/C % (median increase in survival time)” value came to 183%, the “TOX (number of toxic deaths/total number of mice)” value is on record as 0/10 and the “% tumor inhibition” value is on record as 95%.

As to “Copolymer of N-(^2 -hydroxypropyl)methacrylamide) 9-amino-20-O-[N-methacryloylglycyl-L-phenylalanyl-L-leucylglycyl] campto-thecin and N-(2-hydroxypropyl)methacryloylalycinamide [Compound A3]”, the “camptothecin released” value in series [1] (after 50 hours) turned out to be 100%.

As for “Copolymer of N-(2-hydroxypropyl)methacrylamide, 20-O-[N-methacryloylglycyl-(6-aminohexanoylyl]camptothecin and N-(2-hydroxy -propyl)methacryloylglycinamide [Al]”, the “camptothecin released” value in series [1] (after 120 hours) was found to be 10%.

For orientation: LD50 means the dose at which mortality reaches 50%. Consider `CC[C@@]1(O)C(=O)OCc2c1cc1n(c2=O)Cc2cc3ccccc3nc2-1` [CPT, camptothecin], for which, in the series on HT29/Colon Carcinoma, the “% tumor inhib.” value came to 83%, the “TOX (number of toxic deaths/total number of mice)” value is listed as 0/10 and the “cured mice (tumor free mice 90 days after tumor implant)” value is reported as 0/10. The “LD10 (dose inducing 10% of death mice)” value with healthy C57Bl/F mice turned out to be 16.9 mg/kg. The LD50 in series [4] came out at 43.4 mg/kg. Further, in series [5], the “solubility in vehicles suitable for parenteral administration (in words)” value is recorded as “practically insoluble”. Besides, in series [2] (ip 1,6,9), the “T/C % (median increase in survival time)” value is 165%, the “TOX (number of toxic deaths/total number of mice)” value is on record as 0/10 and the “% tumor inhib.” value is reported as 100%. For the same molecule, in series [3] (7.5 mg/kg (CPT equivalent)), the “T/C % (median increase in survival time)” value worked out at 173%, the “TOX (number of toxic deaths/total number of mice)” value was 0/10 and the “% tumor inhibition” value is 72%.
